Experimental data reported in patent US8440628B2, “Medical compositions containing ghrelin” (Daiichi Sankyo Company, Limited, priority 2002, dated 2013).

Experiments:
[1] = Stability of human ghrelin in 0.1M HCl and Mcllvain buffer solutions of various pH at 25°C (Example 2, HPLC peak area ratio); assay type: physicochemical; conditions: human ghrelin 0.5 mg/mL in Mcllvain buffer
Protocol: Human ghrelin was dissolved in the following aqueous solutions in the concentration of about 0.15 μmol/mL (0.5 mg/mL).
0.1M HCl aqueous solution (pH: 1.1)
The pH was adjusted with 0.1M citric aqueous acid and 0.2M dibasic sodium phosphate aqueous solution.
Each solution were stored at 25±2° C. for 8, 24, 48 and 72 hours respectively, and the obtained solutions were detected by HPLC analysis in comparison to the solutions before storage. […] No significant changes of pH in solution before storage and after storage were observed.

[2] = Lyophilized powder for in situ preparation: solubility, content and pH after redissolving (Example 11); conditions: solution just after preparation, before lyophilization
Protocol: Human ghrelin was dissolved in 5% mannitol-0.05M glycine hydrochloride buffer solution (pH 3.5) with about 0.3 nmol/mL (1.0 μg/mL) concentration, and the human ghrelin concentration of this solution just after preparation was measured by HPLC method, and pH value of this solution was also measured. […] Then, this solution was lyophilized at −25° C. for 24 hours in vacuo, and the obtained powder was further dried at 20° C. for 24 hours in vacuo.

pH observed ([1]; pH 3, 25±2°C, 24 hr. after): 3.1 | Peak area ratio to total peak area ([1]; pH 3, 25±2°C, 48 hr. after): 98.40% | pH observed ([1]; pH 3, 25±2°C, 48 hr. after): 3.1 | Peak area ratio to total peak area ([1]; pH 3, 25±2°C, 72 hr. after): 98.03% | pH observed ([1]; pH 3, 25±2°C, 72 hr. after): 3.1 | Peak area ratio to total peak area ([1]; pH 3, 25±2°C, before storage): 99.07% | pH observed ([1]; pH 3, 25±2°C, before storage): 3.0 | Peak area ratio to total peak area ([1]; pH 4, 25±2°C, 8 hr. after): 99.07% | pH observed ([1]; pH 4, 25±2°C, 8 hr. after): 4.0 | Peak area ratio to total peak area ([1]; pH 4, 25±2°C, 24 hr. after): 98.92% | pH observed ([1]; pH 4, 25±2°C, 24 hr. after): 4.0 | Peak area ratio to total peak area ([1]; pH 4, 25±2°C, 48 hr. after): 98.69% | pH observed ([1]; pH 4, 25±2°C, 48 hr. after): 4.0 | Peak area ratio to total peak area ([1]; pH 4, 25±2°C, 72 hr. after): 98.44% | pH observed ([1]; pH 4, 25±2°C, 72 hr. after): 4.0 | Peak area ratio to total peak area ([1]; pH 4, 25±2°C, before storage): 99.07% | pH observed ([1]; pH 4, 25±2°C, before storage): 4.0 | Peak area ratio to total peak area ([1]; pH 5, 25±2°C, 8 hr. after): 99.04% | pH observed ([1]; pH 5, 25±2°C, 8 hr. after): 5.0 | Peak area ratio to total peak area ([1]; pH 5, 25±2°C, 24 hr. after): 98.91% | pH observed ([1]; pH 5, 25±2°C, 24 hr. after): 5.0 | Peak area ratio to total peak area ([1]; pH 5, 25±2°C, 48 hr. after): 98.59% | pH observed ([1]; pH 5, 25±2°C, 48 hr. after): 5.0 | Peak area ratio to total peak area ([1]; pH 5, 25±2°C, 72 hr. after): 98.37% | pH observed ([1]; pH 5, 25±2°C, 72 hr. after): 5.0 | Peak area ratio to total peak area ([1]; pH 5, 25±2°C, before storage): 99.06% | pH observed ([1]; pH 5, 25±2°C, before storage): 5.0 | Peak area ratio to total peak area ([1]; pH 6, 25±2°C, 8 hr. after): 98.87% | pH observed ([1]; pH 6, 25±2°C, 8 hr. after): 6.0 | Peak area ratio to total peak area ([1]; pH 6, 25±2°C, 24 hr. after): 98.28% | pH observed ([1]; pH 6, 25±2°C, 24 hr. after): 6.0 | Peak area ratio to total peak area ([1]; pH 6, 25±2°C, 48 hr. after): 97.64% | pH observed ([1]; pH 6, 25±2°C, 48 hr. after): 6.0 | Peak area ratio to total peak area ([1]; pH 6, 25±2°C, 48 hr. after, listed as human ghrelin): less than 98% | Peak area ratio to total peak area ([1]; pH 6, 25±2°C, 72 hr. after): 96.92% | pH observed ([1]; pH 6, 25±2°C, 72 hr. after): 6.0 | Peak area ratio to total peak area ([1]; pH 6, 25±2°C, before storage): 99.07% | pH observed ([1]; pH 6, 25±2°C, before storage): 6.0 | Peak area ratio to total peak area ([1]; pH 7, 25±2°C, 8 hr. after): 98.15% | pH observed ([1]; pH 7, 25±2°C, 8 hr. after): 7.0 | Peak area ratio to total peak area ([1]; pH 7, 25±2°C, 24 hr. after): 96.18% | pH observed ([1]; pH 7, 25±2°C, 24 hr. after): 7.0 | Peak area ratio to total peak area ([1]; pH 7, 25±2°C, 24 hr. after, listed as human ghrelin): less than 98% | Peak area ratio to total peak area ([1]; pH 7, 25±2°C, 48 hr. after): 93.44% | pH observed ([1]; pH 7, 25±2°C, 48 hr. after): 7.0 | Peak area ratio to total peak area ([1]; pH 7, 25±2°C, 72 hr. after): 90.75% | pH observed ([1]; pH 7, 25±2°C, 72 hr. after): 7.0 | Peak area ratio to total peak area ([1]; pH 7, 25±2°C, before storage): 98.97% | pH observed ([1]; pH 7, 25±2°C, before storage): 7.0 | Peak area ratio to total peak area ([1]; pH 8, 25±2°C, 8 hr. after): 94.73% | pH observed ([1]; pH 8, 25±2°C, 8 hr. after): 7.9 | Peak area ratio to total peak area ([1]; pH 8, 25±2°C, 24 hr. after): 87.32% | pH observed ([1]; pH 8, 25±2°C, 24 hr. after): 7.9 | Peak area ratio to total peak area ([1]; pH 8, 25±2°C, 48 hr. after): 76.95% | pH observed ([1]; pH 8, 25±2°C, 48 hr. after): 7.9 | Peak area ratio to total peak area ([1]; pH 8, 25±2°C, 72 hr. after): 68.30% | pH observed ([1]; pH 8, 25±2°C, 72 hr. after): 7.9 | Peak area ratio to total peak area ([1]; pH 8, 25±2°C, before storage): 98.61% | pH observed ([1]; pH 8, 25±2°C, before storage): 8.0 | pH value of the solution [2]: 3.5
SMILES: CCCCCCCC(=O)OC[C@H](NC(=O)[C@H](CO)NC(=O)CN)C(=O)N[C@@H](Cc1ccccc1)C(=O)N[C@@H](CC(C)C)C(=O)N[C@@H](CO)C(=O)N1CCC[C@H]1C(=O)N[C@@H](CCC(=O)O)C(=O)N[C@@H](Cc1c[nH]cn1)C(=O)N[C@@H](CCC(N)=O)C(=O)N[C@@H](CCCNC(=N)N)C(=O)N[C@H](C(=O)N[C@@H](CCC(N)=O)C(=O)N[C@@H](CCC(N)=O)C(=O)N[C@@H](CCCNC(=N)N)C(=O)N[C@@H](CCCCN)C(=O)N[C@@H](CCC(=O)O)C(=O)N[C@@H](CO)C(=O)N[C@@H](CCCCN)C(=O)N[C@@H](CCCCN)C(=O)N1CCC[C@H]1C(=O)N1CCC[C@H]1C(=O)N[C@@H](C)C(=O)N[C@@H](CCCCN)C(=O)N[C@@H](CC(C)C)C(=O)N[C@@H](CCC(N)=O)C(=O)N1CCC[C@H]1C(=O)N[C@@H](CCCNC(=N)N)C(=O)O)C(C)C [Human ghrelin]
